Source: patent US7932270B2 (Cytokinetics, Inc., priority 2006, dated 2011)

Target: T1, chicken gizzard smooth muscle myosin subfragment-1 chemically crosslinked to cardiac or skeletal actin (Gallus gallus, UniProt P10587)
T1 construct: chicken gizzard smooth muscle myosin subfragment-1; from tissue; host or cells: chicken gizzard
Assay: Smooth muscle myosin ATPase dose response assay (pyruvate kinase/horseradish peroxidase/pyruvate oxidase-coupled, amplex red fluorescence)
Type: biochemical
Details: read-out: IC50 Arithmetic Mean
Summary of the method: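 Inhibition is measured in a peroxidase/pyruvate oxidase-linked format at pH 7.00 and 22° C, 0.15 mM ATP final. Myosin input is titrated to a target turnover since active fraction differs between preparations.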

T1 sequence (P02607 2-151): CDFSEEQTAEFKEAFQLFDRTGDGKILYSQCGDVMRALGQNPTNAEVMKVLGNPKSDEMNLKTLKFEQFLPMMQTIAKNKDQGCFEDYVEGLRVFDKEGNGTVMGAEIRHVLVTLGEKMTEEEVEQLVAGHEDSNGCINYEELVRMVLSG
T1 sequence (P10587 84-789): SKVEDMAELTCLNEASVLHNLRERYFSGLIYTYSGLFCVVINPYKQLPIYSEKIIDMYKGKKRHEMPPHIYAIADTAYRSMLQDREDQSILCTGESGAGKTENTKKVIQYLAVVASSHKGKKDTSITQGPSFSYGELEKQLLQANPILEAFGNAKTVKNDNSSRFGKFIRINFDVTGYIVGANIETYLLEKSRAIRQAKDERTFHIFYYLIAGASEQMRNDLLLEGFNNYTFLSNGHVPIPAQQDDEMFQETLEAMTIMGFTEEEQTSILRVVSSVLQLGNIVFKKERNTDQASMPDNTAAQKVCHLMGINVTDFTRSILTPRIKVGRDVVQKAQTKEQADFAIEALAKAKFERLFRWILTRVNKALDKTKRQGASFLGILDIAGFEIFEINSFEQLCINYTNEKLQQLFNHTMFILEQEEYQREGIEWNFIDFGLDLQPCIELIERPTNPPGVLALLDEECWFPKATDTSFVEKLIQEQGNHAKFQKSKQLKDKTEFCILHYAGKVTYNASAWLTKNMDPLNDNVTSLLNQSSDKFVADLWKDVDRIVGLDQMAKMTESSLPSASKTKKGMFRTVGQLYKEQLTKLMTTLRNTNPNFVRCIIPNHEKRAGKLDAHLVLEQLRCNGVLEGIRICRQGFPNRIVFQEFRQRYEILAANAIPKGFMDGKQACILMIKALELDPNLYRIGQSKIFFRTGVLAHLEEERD

SMILES	IC50 [nM]
O=C(NCc1cccnc1)c1ccc(-c2ccccc2)nc1NCCc1cccc(C(F)(F)F)c1 [[6-phenyl-2-({2-[3-(trifluoromethyl)phenyl]ethyl}amino)(3-pyridyl)]-N-(3-pyridylmethyl)carboxamide]	8250
O=C(Nc1cccnc1)c1ccc(-c2ccccc2)nc1NCCc1ccccn1 [{6-phenyl-2-[(2-(2-pyridyl)ethyl)amino](3-pyridyl)}-N-(3-pyridyl)carboxamide]	5370
O=C(NCc1cccnc1NCCO)c1ccc(-c2cn[nH]c2)nc1NCCc1cccc(F)c1 [(2-{[2-(3-fluorophenyl)ethyl]amino}-6-pyrazol-4-yl(3-pyridyl))-N-({2-[(2-hydroxyethyl)amino](3-pyridyl)}methyl)carboxamide]	65
CC(=O)Nc1ccc(-c2ccc(C(=O)NCc3cccnc3)c(NCCc3ccccn3)n2)cc1 [N-(4-{6-[(2-(2-pyridyl)ethyl)amino]-5-[N-(3-pyridylmethyl)carbamoyl]-2-pyridyl}phenyl)acetamide]	1220
N#Cc1ccccc1-c1ccc(C(=O)NCCc2cccnc2)c(NCCc2cccc(F)c2)n1 [(6-(2-cyanophenyl)-2-{[2-(3-fluorophenyl)ethyl]amino}(3-pyridyl))-N-(2-(3-pyridyl)ethyl)carboxamide]	150
CC(C)(C)OC(=O)NCCCC(=O)N1CCC[C@@H]1CNC(=O)c1cc(F)c(-c2ccccc2C#N)nc1NCCc1cccc(F)c1 [N-[((2R)-1-{4-[(tert-butoxy)carbonylamino]butanoyl}pyrrolidin-2-yl)methyl](6-(2-cyanophenyl)-5-fluoro-2-{[2-(3-fluorophenyl)ethyl]amino}(3-pyridyl))carboxamide]	1060
COC(=O)CNC(=O)c1ccc(-c2ccccc2)nc1NCCc1ccccc1 [methyl 2-({6-phenyl-2-[(2-phenylethyl)amino]-3-pyridyl}carbonylamino)acetate]	1340
O=C(NCc1ccccc1)c1ccc(-c2ccccc2)nc1NCCc1ccccn1 [N-benzyl{6-phenyl-2-[(2-(2-pyridyl)ethyl)amino](3-pyridyl)}carboxamide]	1560
CC(C)(C)OC(=O)NCCCN1CCCC1CNC(=O)c1ccc(-c2ccccc2C#N)nc1NCCc1cccc(F)c1 (centres unmarked) [N-[(1-{3-[(tert-butoxy)carbonylamino]propyl}pyrrolidin-2-yl)methyl](6-(2-cyanophenyl)-2-{[2-(3-fluorophenyl)ethyl]amino}(3-pyridyl))carboxamide]	2080
CNCCNC(=O)CNC(=O)c1ccc(-c2ccccc2C#N)nc1NCCc1cccc(F)c1 [2-[(6-(2-cyanophenyl)-2-{[2-(3-fluorophenyl)ethyl]amino}(3-pyridyl))carbonylamino]-N-[2-(methylamino)ethyl]acetamide]	11100
O=C(NCc1cccnc1)c1ccc(-c2ccccc2)nc1NCCN1CCOCC1 [{2-[(2-morpholin-4-ylethyl)amino]-6-phenyl(3-pyridyl)}-N-(3-pyridylmethyl)carboxamide]	37300
CC(C)(C)OC(=O)NCCn1ccc(CNC(=O)c2ccc(-c3cc[nH]n3)nc2NCCc2cccc(F)c2)n1 [N-[(1-{2-[(tert-butoxy)carbonylamino]ethyl}pyrazol-3-yl)methyl](2-{[2-(3-fluorophenyl)ethyl]amino}-6-pyrazol-3-yl(3-pyridyl))carboxamide]	12000
O=C(NCc1cccnc1)c1ccc(-c2cccs2)nc1NCCc1cc(F)cc(F)c1 [(2-{[2-(3,5-difluorophenyl)ethyl]amino}-6-(2-thienyl)(3-pyridyl))-N-(3-pyridylmethyl)carboxamide]	97
N#Cc1ccccc1-c1ccc(C(=O)NCc2cccnc2)c(NCCc2cccs2)n1 [{6-(2-cyanophenyl)-2-[(2-(2-thienyl)ethyl)amino](3-pyridyl)}-N-(3-pyridylmethyl)carboxamide]	29
CN(C)C(=O)[C@H](CN)NC(=O)c1ccc(-c2ccccc2C#N)nc1NCCc1cccc(F)c1 [(2S)-3-amino-2-[(6-(2-cyanophenyl)-2-{[2-(3-fluorophenyl)ethyl]amino}(3-pyridyl))carbonylamino]-N,N-dimethylpropanamide]	23700
CN1CCC(CCNc2nc(-c3ccccc3)ccc2C(=O)NCc2cccnc2)CC1 [(2-{[2-(1-methyl(4-piperidyl))ethyl]amino}-6-phenyl(3-pyridyl))-N-(3-pyridylmethyl)carboxamide]	20100
CS(=O)(=O)NCCNC(=O)c1ccc(-c2ccccc2C#N)nc1NCCc1cccc(F)c1 [(6-(2-cyanophenyl)-2-{[2-(3-fluorophenyl)ethyl]amino}(3-pyridyl))-N-{2-[(methylsulfonyl)amino]ethyl}carboxamide]	326

More lines, now with the values ahead:

IC50 [nM]	SMILES
5480	N#Cc1ccccc1-c1ccc(C(=O)NC[C@H]2CNCCN2C(=O)CCCN)c(NCCc2cccc(F)c2)n1 [N-{[(2R)-1-(4-aminobutanoyl)piperazin-2-yl]methyl}(6-(2-cyanophenyl)-2-{[2-(3-fluorophenyl)ethyl]amino}(3-pyridyl))carboxamide]
1630	CS(=O)(=O)N1CCCC[C@H]1CNC(=O)c1ccc(-c2ccccc2C#N)nc1NCCc1cccc(F)c1 [N-{[(2S)-1-(methylsulfonyl)(2-piperidyl)]methyl}(6-(2-cyanophenyl)-2-{[2-(3-fluorophenyl)ethyl]amino}(3-pyridyl))carboxamide]
313	Cn1cc(-c2ccc(C(=O)NCc3ccnn3CCN)c(NCCc3cccc(F)c3)n2)cn1 [N-{[1-(2-aminoethyl)pyrazol-5-yl]methyl}(2-{[2-(3-fluorophenyl)ethyl]amino}-6-(1-methylpyrazol-4-yl)(3-pyridyl))carboxamide]
913	CC(C)C[C@H](CNC(=O)c1ccc(-c2ccccc2C#N)nc1NCCc1cccc(F)c1)NC(=O)CN [N-((1R)-1-{[(6-(2-cyanophenyl)-2-{[2-(3-fluorophenyl)ethyl]amino}(3-pyridyl))carbonylamino]methyl}-3-methylbutyl)-2-aminoacetamide]
15	N#Cc1ccccc1-c1ccc(C(=O)NC[C@H]2CCCC(=O)N2)c(NCCc2cccc(F)c2)n1 [N-[((2R)-6-oxo(2-piperidyl))methyl](6-(2-cyanophenyl)-2-{[2-(3-fluorophenyl)ethyl]amino}(3-pyridyl))carboxamide]
45	Cn1cc(-c2nc(NCCc3cccc(F)c3)c(C(=O)NC[C@H]3CCN3C(=O)COC(=O)CN)cc2F)cn1 [2-((2R)-2-{[(5-fluoro-2-{[2-(3-fluorophenyl)ethyl]amino}-6-(1-methylpyrazol-4-yl)(3-pyridyl))carbonylamino]methyl}azetidinyl)-2-oxoethyl 2-aminoacetate]
285	C[C@H](CNC(=O)c1cc(F)c(-c2cnn(C)c2)nc1NCCc1cccc(F)c1)NC(=O)C(C)(C)N
625	O=C(NCc1cccnc1)c1cc(CO)c(-c2ccccc2)nc1NCCc1cccc(F)c1 [(2-{[2-(3-fluorophenyl)ethyl]amino}-5-(hydroxymethyl)-6-phenyl(3-pyridyl))-N-(3-pyridylmethyl)carboxamide]
38	N#Cc1ccccc1-c1nc(NCCc2cccc(F)c2)c(C(=O)NC[C@H]2CCCN2C(=O)CCCN)cc1F [N-{[(2R)-1-(4-aminobutanoyl)pyrrolidin-2-yl]methyl}(6-(2-cyanophenyl)-5-fluoro-2-{[2-(3-fluorophenyl)ethyl]amino}(3-pyridyl))carboxamide]
32	N#Cc1ccccc1-c1ccc(C(=O)NCc2ccnn2CCN)c(NCCc2cccc(F)c2)n1 [N-{[1-(2-aminoethyl)pyrazol-5-yl]methyl}(6-(2-cyanophenyl)-2-{[2-(3-fluorophenyl)ethyl]amino}(3-pyridyl))carboxamide]
1780	Cn1cc(-c2ccc(C(=O)NC[C@H]3CCCN3C(=O)CO)c(NCCc3cccc(F)c3)n2)cn1 [N-{[(2R)-1-(2-hydroxyacetyl)pyrrolidin-2-yl]methyl}(2-{[2-(3-fluorophenyl)ethyl]amino}-6-(1-methylpyrazol-4-yl)(3-pyridyl))carboxamide]
42	N#Cc1ccccc1-c1nc(NCCc2cccc(F)c2)c(C(=O)NC[C@H]2CCCN2C(=O)CCN)cc1F [N-{[(2R)-1-(3-aminopropanoyl)pyrrolidin-2-yl]methyl}(6-(2-cyanophenyl)-5-fluoro-2-{[2-(3-fluorophenyl)ethyl]amino}(3-pyridyl))carboxamide]
4890	N#Cc1ccccc1-c1ccc(C(=O)NC[C@H]2CNCCN2C(=O)CCN)c(NCCc2cccc(F)c2)n1 [N-{[(2R)-1-(3-aminopropanoyl)piperazin-2-yl]methyl}(6-(2-cyanophenyl)-2-{[2-(3-fluorophenyl)ethyl]amino}(3-pyridyl))carboxamide]
215	O=C(NCC(CO)CO)c1cc(F)c(-c2cn[nH]c2)nc1NCCc1cccc(F)c1 [(5-fluoro-2-{[2-(3-fluorophenyl)ethyl]amino}-6-pyrazol-4-yl(3-pyridyl))-N-[3-hydroxy-2-(hydroxymethyl)propyl]carboxamide]
1230	C[C@H](CNC(=O)c1cc(F)c(-c2cnn(C)c2)nc1NCCc1cccc(F)c1)C(C)(C)O [N-((2R)-3-hydroxy-2,3-dimethylbutyl)(5-fluoro-2-{[2-(3-fluorophenyl)ethyl]amino}-6-(1-methylpyrazol-4-yl)(3-pyridyl))carboxamide]
6790	CC(=O)N1CCN(C)C[C@@H]1CNC(=O)c1ccc(-c2ccccc2C#N)nc1NCCc1cccc(F)c1 [N-[((2S)-1-acetyl-4-methylpiperazin-2-yl)methyl](6-(2-cyanophenyl)-2-{[2-(3-fluorophenyl)ethyl]amino}(3-pyridyl))carboxamide]
328	CNC(=O)CNC(=O)c1ccc(-c2cn[nH]c2)nc1NCCc1cccc(F)c1 [2-[(2-{[2-(3-fluorophenyl)ethyl]amino}-6-pyrazol-4-yl(3-pyridyl))carbonylamino]-N-methylacetamide]
394	O=C(NC[C@H]1CCCN1)c1cc(F)c(-c2cn[nH]c2)nc1NCCc1cccc(F)c1 [N-[((2R)pyrrolidin-2-yl)methyl](5-fluoro-2-{[2-(3-fluorophenyl)ethyl]amino}-6-pyrazol-4-yl(3-pyridyl))carboxamide]
